Reference: paper PMC10301896 (Pharmaceutics, 2023)
In brackets after ≈: the same amount, converted by molar mass. Several values for one entry are separate records, joined by “and”; a condition that tells them apart may be missing. Equal values may be shown once. Entries after “also recorded” stand apart in the source; their conditions may differ. Read-outs that look alike come from different tables or passages of the source.

Assays:
[1] = control rabbits
[2] = Chelation with Al3+ ion in vitro (precipitation with AlCl3); format: physicochemical; conditions: for Precipitation (%): drug 50 μM, pH 6.5, 30 min, 24 °C
Protocol: AlCl3 was also dissolved in the same buffer at a concentration of 50 μM, 100 μM, 200 μM, 1 mM, or 2 mM, and each drug solution and AlCl3 solution were mixed at an equal volume. The mixture solution was shaken, stood for 30 min at 24 °C and centrifuged. The supernatant was filtrated through a syringe filter with 0.22 μm of pore size (Millipore, Tokyo, Japan).

E. coli ATCC25922 = experiment: MIC, agar plate dilution method; format: cell-based, Escherichia (E.) coli
Protocol: The bacterial numbers of S. aureus, E. coli, and P. aeruginosa were adjusted to McFarland 0.5 ([…]) with the sterilized isotonic NaCl solution. […] Facultative anaerobic and aerobic bacteria were cultured under the aerobic condition at 37 °C for 20 h.

[3] = Enzymatic stability in rat 2% small intestinal mucosal homogenates; format: in vitro ADME; conditions: rat 2% mucosal homogenate, 37 °C
Protocol: (§1) Briefly, to examine the chemical stability of CFX-EHE, pH 6.5 and pH 7.4 phosphate buffer solutions (PBS) were used. Enzymatic stability of CFX-EHE (the initial concentration was 0.1 mM) was determined at 1, 5, and 15 min after the start of incubation at 37 °C using the following specimen: rat 10% plasma obtained from male Sprague Dawley (SD) rats, rat 2% small intestinal mucosal homogenates, and rat 2% liver homogenates in the same manner as described previously. […].

[4] = Enzymatic stability in rat 10% plasma; format: in vitro ADME; conditions: 37 °C
Protocol: as §1

S. aureus ATCC29213 = experiment: MIC, agar plate dilution method; format: cell-based, Staphylococcus (S.) aureus
Protocol: The bacterial numbers of S. aureus, E. coli, and P. aeruginosa were adjusted to McFarland 0.5 ([…]) with the sterilized isotonic NaCl solution. These bacterial solutions were inoculated in Mueller–Hinton broth containing CFX or CFX-EHE. Facultative anaerobic and aerobic bacteria were cultured under the aerobic condition at 37 °C for 20 h.

[5] = Chemical stability in phosphate buffer solutions; format: physicochemical; conditions: 37 °C
Protocol: as §1

[6] = Partition coefficient, chloroform/0.1 M Tris-HCl buffer (pH 6.5); format: physicochemical
Protocol: Briefly, chloroform and 0.1 M Tris-HCl buffer (pH 6.5) were mutually saturated before experiments. […] Four milliliters of each drug solution were added to 4 mL of chloroform, and the mixture was vigorously shaken for 30 min at 25 °C. After centrifugation at 3000 rpm for 10 min, the concentration of the compound in both phases was determined by HPLC.

P. aeruginosa ATCC27853 = experiment: MIC, agar plate dilution method; format: cell-based, Pseudomonas (P.) aeruginosa
[7] = Solubility in pH 2 buffer and 0.1 M Tris-HCl buffer (pH 6.5); format: physicochemical; conditions: thermodynamic from solid, 25 °C
Protocol: The mixture was centrifuged at 3000 rpm for 10 min, and the supernatant was filtered through a syringe filter with 0.22 μm of pore size (Millipore, Tokyo, Japan), and the concentrations of the compound in the filtrate were measured by HPLC.

[8] = Enzymatic stability in rat 2% liver homogenates; format: in vitro ADME; conditions: 37 °C
Protocol: as §1

[9] = rats; cited from earlier work
[10] = Mucosal damage after EDTA treatment: oral absorption of FD-4; conditions: >10 mL of 1 mg/mL EDTA 2Na orally, rabbits
Protocol: FD-4 was administered orally by stomach intubation at 10 mg/kg and 10 mL water. Blood (100 μL each) was taken periodically at 0, 0.5, 1, 2, and 4 h after administration from the ear vein. […] The concentrations of FD-4 in plasma were determined by Spectro fluorophotometer RF-1500 (Shimadzu Co., Ltd., Kyoto, Japan) using an excitation and emission wavelength of 480 nm and 520 nm, respectively.

[11] = individual rabbits
Excerpt: Rabbits were supplied solid food for rabbits (CR-3M, CLEA Japan, Inc., Tokyo, Japan), and the average amount of CR-3M that each rabbit ingested was 100–110 g/day. CR-3M contains various vitamins and cationic metals including Ca, Mg, and iron (Fe^2+, Fe^3+) in addition to various energy sources. […] Coprophagy was not prevented in control rabbits.
To estimate gastric contents, gastric Ca and Mg concentrations, and gastric pH in the untreated control (not fasted), control (fasted) and EDTA-treated rabbits, rabbits were sacrificed by intraperitoneal injection of an excess amount of pentobarbital. Rabbits were opened along the midline and their stomach was isolated. The stomach contents were taken out into a test tube and weighed, and the suspension was centrifuged at 3000 rpm for 10 min to measure the amount of gastric water. Then, concentrations of the Ca and Mg in the supernatant were measured by using L type Wako Ca (Fujifilm, Tokyo, Japan) and L type Wako Mg N (Fujifilm, Tokyo, Japan), respectively, and an automated clinical chemistry analyzer, TBA-nx360 (Canon, Tokyo, Japan). The pH of gastric water was also determined.

[12] = cited from earlier work; for Rate of adsorption onto solid Al(OH)3: quinolones 50 µM
[13] = mixed-breed dogs, dose of 5 mg/kg; cited from earlier work
[14] = cited from earlier work
[15] = sheep, dose of 2 mg/kg; cited from earlier work
[16] = rats; cited from earlier work; remark: listed apart in the source
[17] = cited from earlier work; remark: listed apart in the source
[18] = cited from earlier work; remark: listed apart in the source
[19] = cited from earlier work; remark: listed apart in the source
[20] = 2% mucosal homogenate, 1 min incubation; cited from earlier work
[21] = 10% plasma, 1 min incubation; cited from earlier work
[22] = 2% liver homogenates, 1 min incubation; cited from earlier work
[23] = gastric water, EDTA-treated rabbits

O=C(O)c1cn(C2CC2)c2cc(N3CCNCC3)c(F)cc2c1=O [CFX, ciprofloxacin]
β ([1]; […] iv infusion, LFX 20, CFX 30, TC 10 mg/kg): 0.34 ± 0.04 h⁻¹
Precipitation (%) ([2]; AlCl3 25 μM): 20.4 ± 17.6%
Precipitation (%) ([2]; AlCl3 50 μM): 22.9 ± 16.7%
Precipitation (%) ([2]; AlCl3 100 μM): 39.2 ± 17.7%
Precipitation (%) ([2]; AlCl3 500 μM): 55.5 ± 18.0%
Precipitation (%) ([2]; AlCl3 1 mM): 73.4 ± 2.0%

CCOC(=O)OC(C)OC(=O)c1cn(C2CC2)c2cc(N3CCNCC3)c(F)cc2c1=O (centres unmarked) [CFX-EHE]
MIC of CFX-EHE relative to CFX (E. coli ATCC25922; E. coli): more than 10 times
MIC (E. coli ATCC25922; Escherichia coli, E. coli ATCC25922, 37 °C, 20 h): 0.5 µg/mL (≈ 1.12 µM)
Hydrolysis (%) ([3]; 1 min): 20.4 ± 2.7%
Hydrolysis (%) ([3]; 5 min): 59.0 ± 9.2%
Hydrolysis (%) ([3]; 15 min): 85.9 ± 11.5%
Hydrolysis (%) ([4]; 1 min): 9.5 ± 9.0%
Hydrolysis (%) ([4]; 5 min): 27.2 ± 1.0%
Hydrolysis (%) ([4]; 15 min): 71.1 ± 17.4%
MIC of CFX-EHE relative to CFX (S. aureus ATCC29213; S. aureus): more than 10 times
MIC (S. aureus ATCC29213; Staphylococcus aureus, S. aureus ATCC29213, 37 °C, 20 h): 4 µg/mL (≈ 8.94 µM)
Hydrolysis (%) ([5]; 0.1 M PBS (pH 6.5), 1 min): 0%
Hydrolysis (%) ([5]; 0.1 M PBS (pH 6.5), 5 min): 0%
Hydrolysis (%) ([5]; 0.1 M PBS (pH 6.5), 15 min): 0%
Hydrolysis (%) ([5]; 0.1 M PBS (pH 7.4), 1 min): 0%
Hydrolysis (%) ([5]; 0.1 M PBS (pH 7.4), 5 min): 0%
Hydrolysis (%) ([5]; 0.1 M PBS (pH 7.4), 15 min): 0%
log PC ([6]; chloroform/0.1 M Tris-HCl buffer (pH 6.5), 25 °C): 0.79
PC (partition coefficient) ([6]; chloroform/0.1 M Tris-HCl buffer (pH 6.5), 25 °C, mean of 3): 6.12
Apparent PC of CFX-EHE relative to CFX ([6]; chloroform/pH 6.5 buffer): 13 fold
MIC of CFX-EHE relative to CFX (P. aeruginosa ATCC27853; P. aeruginosa): more than 10 times
MIC (P. aeruginosa ATCC27853; Pseudomonas aeruginosa, P. aeruginosa ATCC27853, 37 °C, 20 h): 8 µg/mL (≈ 17.9 µM)
Precipitation (%) ([2]; AlCl3 25 μM): 0%
Precipitation (%) ([2]; AlCl3 50 μM): 0%
Precipitation (%) ([2]; AlCl3 100 μM): 0%
Precipitation (%) ([2]; AlCl3 500 μM): 0%
solubility at 30 min ([7]; aqueous buffer, 0.1 M Tris-HCl buffer (pH 6.5), read-out: Solubility pH 6.5): 3080 µg/mL (≈ 6880 µM)
solubility at 30 min ([7]; pH 2 buffer adjusted with hydrochloric acid, pH 2, aqueous buffer, read-out: Solubility pH 2.0): 4280 µg/mL (≈ 9570 µM)
Hydrolysis (%) ([8]; 1 min): 38.4 ± 15.8%
Hydrolysis (%) ([8]; 5 min): 69.5 ± 9.5%
Hydrolysis (%) ([8]; 15 min): 94.8 ± 3.4%

O=C([O-])CN(CCN(CC(=O)O)CC(=O)O)CC(=O)[O-].[Na+].[Na+] [EDTA 2Na, disodium ethylenediamine tetraacetic acid]
Lowest effective dose to increase the permeability of dichloromethylene bisphosphonate [9]: 100 mg/kg
Minimal effective dose to increase membrane permeability to 4-amino-1-hydroxybutylidene-1,1-bisphosphonate [9]: 10 mg/kg
Mucosal damage after EDTA treatment [10]: without causing mucosal damage
Effect of added EDTA 2Na on precipitation of CFX with AlCl3 ([2]; EDTA 2Na 4 mg/mL, 12 mM added to mixture solutions of CFX and AlCl3): completely inhibited
Gastric Contents (g) ([11]; EDTA-treated rabbits (free access to 1 mg/mL EDTA 2Na, 10 mL at 1 h before; coprophagy prevented)): (3) 13.1 (hair > pellets) g; also recorded: (1) 9.5 (hair > pellets) g; also recorded: (2) 7.8 (hair > pellets) g
Gastric pH ([11]; EDTA-treated rabbits): 1.3 and 1.6 and 1.2
Water Contents ([11]; EDTA-treated rabbits): 10.5 mL and 6.7 mL and 4.8 mL
Concentrations Ca [11, 23]: 1.9 mg/dL and 2.6 mg/dL and 1.3 mg/dL
Concentrations Mg [11, 23]: 1.9 mg/dL and 1.6 mg/dL

CCn1cc(C(=O)O)c(=O)c2cc(F)c(N3CCNCC3)nc21 [ENX, enoxacin]
Elution rate of adsorbed quinolones with water [12]: 18.3%
Rate of adsorption onto solid Al(OH)3 [12]: 61.0%

C[C@H]1COc2c(N3CCN(C)CC3)c(F)cc3c(=O)c(C(=O)O)cn1c23 [LFX, levofloxacin]
Absolute oral bioavailability [13]: 71.93 ± 9.75%
Elution rate of adsorbed quinolones with water [12]: 17.9%
Rate of adsorption onto solid Al(OH)3 [12]: 48.1%
Oral bioavailabilities in humans ([14]; LFX 200–750 mg, CFX 200–1000 mg, TC 250 mg, ref references listed in the discussion section): 70–100% (200–750 mg)
Fecal recovery, % of an intravenous dose ([14]; human, in vivo, iv): approximately 15%
Oral bioavailability ([14]; human, in vivo, po, 200 mg): 69 ± 7%
Oral bioavailability ([14]; human, in vivo, po, 250 mg): 79 ± 47%
Oral bioavailability ([14]; human, in vivo, po, 500 mg): 82 ± 13%
Oral bioavailability ([14]; human, in vivo, po): approximately 70%
Oral bioavailability ([14]; humans, review article): approximately 100%
Absolute oral bioavailability [15]: 114 ± 27.7%
Total plasma clearance (CLtotal), Doseiv/AUC0–∞ ([1]; iv infusion): 13.7 mL/min/kg
Dose absorbed as the intact form from the intestinal tract into the portal system [16]: approximately 90%
PC [17]: 5.6
Precipitation percentage ([18]; 50 μM of AlCl3, same in vitro conditions): 12.4%

CCOC(=O)OC(C)OC(=O)c1cn2c3c(c(N4CCN(C)CC4)c(F)cc3c1=O)OC[C@@H]2C (some centres unmarked) [LFX-EHE, levofloxacin-ethoxycarbonyl 1-ethyl hemiacetal ester]
Solubility at pH 2.0 [19]: 16.54 mg/mL
Average hydrolysis % [20]: 17.4%
Average hydrolysis % [21]: 8.2%
PC [17]: 75.2
PC (lipophilicity) of LFX-EHE relative to LFX [17]: 13 fold
Average hydrolysis % [22]: 17.7%
Precipitation in the presence of AlCl3 ([18]; 1 mM of AlCl3 (drug: AlCl3 = 1:20)): not precipitated

CC1COc2c(N3CCN(C)CC3)c(F)cc3c(=O)c(C(=O)O)cn1c23 (centres unmarked) [OFX, ofloxacin]
Elution rate of adsorbed quinolones with water [12]: 20.9%
Rate of adsorption onto solid Al(OH)3 [12]: 47.2%
